Assay results reported in patent US10716778B2, “Use of compounds that are able to increase the serum IGF-1 level for the preparation of a therapeutical composition for treatment of various disease states associated with a reduced IGF-1 serum level in humans and animals” (VEIJLEN N.V., priority 2003, dated 2020).
Where “and” joins values, the source holds several entries; their conditions need not be identical. Equal values may be shown once.

Tests used:
type 2 diabetic patients = test: Well-being of type 2 diabetic patients after treatment (Example 4); type: in vivo, human; details: type 2 diabetes patients
Text: (§1) Five male type 2 diabetic patients took part in the study. They were all very difficult to regulate. When the study started, the average HbA1c was to be approximately 9.0%. The patients had no other clinical problems. In addition, the IgF-BP3/IgF-1 ratio had to be over 10. The age of the subjects were between 45 years and 75 years with an average of 58. The period of the investigation was 6 months. At the start of the study, after 2 month, 4 months and at the end at 6 months, blood was taken. The following parameters were checked: IGF-1 and IGF-PB-3. Also, at the start, safety parameters (liver tests, hematology) were determined. Every 8 weeks, HbA1c was determined.

HbA1c = HbA1c in type 2 diabetic patients during medication with IAA (Example 4); type: in vivo, human; details: for HbA1c: acetic acid
Text: as §1
(§2) All samples from one subject were analyzed in the same run to avoid intra-assay variability. Quantification of IGF-1 was performed using an immunoradiometric assay (IRMA) (DSL-5600 ACTIVE™, DSL, Germany GmbH, Germany). Intra- and inter-assay variance was: 4.0% and 9.2% and 1.5% for IGF-1. The Hba1c was analyzed on HPLC Menarine HA 81-60.
(§3) The total work output of every subject was calculated with a 2-way ANOVA for repeated measures and the hormone values were analyzed with the Wilcoxon test. In all cases, a p value of <0.05 was accepted as significant.

IGF-BP3 = test: Plasma IGF-BP3 level in eight CFS patients treated with the composition (Example 1); type: in vivo, human
Experimental: Eight patients suffering from severe chronic fatigue syndrome (CFS) were studied over a 5- to 7-month period. In this period, they were treated with a therapeutical composition of the disclosure in the form of a food supplement, which comprised IAA as the active ingredient. All subjects were unable to do their job or to perform very light physical exercise.
Before entering the study, the subjects underwent a careful medical examination to exclude any other disease. Blood was assayed for insulin-like growth factor 1 (IGF-1) and its major binding protein IGF-BP3 was sampled at 0, 1, 3 and 5 to 7 months of treatment because the total amount of IGF-1 in serum minus the amount of IGF-BP3 is the amount of free IGF-1. Free IGF-1 is the active serum fraction. Also at 0, 1, 3 and 5 to 7 months, job participation and physical activities were registered and calculated as percentage of normal, before disease pattern.
Eight women varying in age from 25 to 53 years having severe complaints of fatigue that made it impossible to function normally, both at work and in free time. All reported an excessive need for sleep, which was never refreshing even though it was prolonged (more than 12 hours). After excluding all other diseases and infections, they were all diagnosed for CFS.
Blood samples of 20 ml were taken and liver and kidney functions, the red and white hemogram, IGF-1 and IGF-BP3 determined. The patients took 1000 mg/day (corresponding to 40 mg IAA and 960 mg salt and WPC 70) of the composition of the disclosure for 4 weeks. After this, the dosage was reduced by 250 mg (corresponding to 10 mg IAA) every 2 weeks to 750 mg/day, 500 mg/day 250 mg/day, respectively. […]
At the start of the study and at each check-up point, the work participation and physical activity pattern were scored on a scale from 1 to 10 and plotted as the percentage of the patient's normal activities. […] IGF-BP3 was determined by means of an immunoassay (DSL-5600 ACTIVE™, DSL Deutschland GmbH, Germany) having an intra-assay variance of 4.4% and an inter-assay variance of 6.6%. […]

IGF-1 = IGF-1 concentration in problem piglets (group P) with history of PRRSV treated with IAA (Example 9); type: in vivo, Belgian Land Race piglets; details: for IGF-1: group P piglets, acetic acid
Experimental: The piglets were weaned at four weeks and relocated, twelve piglets per pen. IGF-1 levels from three different groups were tested at the age of five weeks.
These are the pigs with the big problems. They are looking poor, have a low weight, bad color and some of them have Staphylococcus infections. It was the firm belief of the farmer and the veterinarian that these piglets would not reach the end of the fattening cycle. Blood samples were taken at random from five of the twelve piglets.
After seeing the low IGF-1 levels in group P, it was decided to give them the same treatment as in humans with CFS. The average weight of the piglets would have been around seven kilos at five weeks of age. They were treated with 125 mg of the composition comprising 5 mg IAA and 120 mg NaCl and WPC 70 for ten days. The product was fed in a trough, mixed in liquid feed. All the piglets ate from the same trough.
After ten days of treatment, random blood samples were taken from the different groups. A code was added for the size of the animals (K=small; N=normal; Z=heavy).
At random, IGF-1 concentrations of five piglets of this group were measured.
Three weeks later, blood samples were again taken, but only from the problem group.

IgF-BP3/IgF-1 = test: Ratio IgF-BP3/IgF-1 in type 2 diabetic patients during medication with IAA (Example 4); type: in vivo, human; details: for Ratio IgF-BP3/IgF-1: acetic acid
Text: as §1, with “At the start of the study, after 2 month, 4 months and at the end at 6 months, blood was taken.” left out
as §2, §3

Substance: indole acetic acid [IAA]
- how the patients felt after the treatment (type 2 diabetic patients): felt better
- HbA1c, average (HbA1c; Week 0 (start), average of 5 subjects): 9.0%
- HbA1c (HbA1c; Week 0 (start), individual subjects): 9.6% and 9.0% and 9.1% and 8.6% and 8.8%
- HbA1c, average (HbA1c; Week 8, average of 5 subjects): 8.3%
- HbA1c (HbA1c; Week 8, individual subjects): 8.9% and 8.2% and 8.3% (2×) and 7.6%
- HbA1c, average (HbA1c; Week 16, average of 5 subjects): 7.4%
- HbA1c (HbA1c; Week 16, individual subjects): 8.0% and 7.1% and 7.4% and 6.9% and 7.6%
- HbA1c, average (HbA1c; Week 24, average of 5 subjects): 6.7%
- HbA1c (HbA1c; Week 24, individual subjects): 7.4% and 6.4% and 6.6% and 6.3% and 6.8%
- IGF-BP3 level (mean±SD) (IGF-BP3; after 1 month of treatment): 18.1 ± 3.5 nmol/L
- IGF-BP3 level (mean±SD) (IGF-BP3; after 5 months of treatment): 13.4 ± 10.6 nmol/L
- IGF-BP3 level (mean±SD) (IGF-BP3; before treatment (baseline)): 25 ± 11.5 nmol/L
- IGF-1 (IGF-1; age five weeks, before treatment (baseline), random individual piglets): 2.3 nmol/l and <0.5 nmol/l (2×) and 2.0 nmol/l and 1.8 nmol/l
- IGF-1 (IGF-1; after ten days of treatment (125 mg composition = 5 mg IAA), random individual piglets): 0.8 nmol/l and <0.5 nmol/l (3×) and 4.2 nmol/l
- IGF-1 (IGF-1; three weeks later, treatment stopped, individual piglets): 55.6 nmol/L and 30.0 nmol/L and 23.4 nmol/L and 65.1 nmol/L and 13.7 nmol/L and 60.1 nmol/L and 36.9 nmol/L
- change of IGF-1 levels (IGF-1; group P, after ten days of treatment): did not rise
- Ratio IgF-BP3/IgF-1, average (IgF-BP3/IgF-1; Month 0 (start), average of 5 subjects): 10.6
- Ratio IgF-BP3/IgF-1 (IgF-BP3/IgF-1; Month 0 (start), individual subjects): 10.2 and 10.6 and 10.8 and 11.3 and 10.0
- Ratio IgF-BP3/IgF-1, average (IgF-BP3/IgF-1; Month 1, average of 5 subjects): 9.9
- Ratio IgF-BP3/IgF-1 (IgF-BP3/IgF-1; Month 1, individual subjects): 9.7 and 10.1 and 9.9 and 10.8 and 8.9
- Ratio IgF-BP3/IgF-1, average (IgF-BP3/IgF-1; Month 2, average of 5 subjects): 8.9
- Ratio IgF-BP3/IgF-1 (IgF-BP3/IgF-1; Month 2, individual subjects): 9.0 and 8.6 and 9.4 and 9.2 and 8.5
- Ratio IgF-BP3/IgF-1, average (IgF-BP3/IgF-1; Month 3, average of 5 subjects): 8.5
- Ratio IgF-BP3/IgF-1 (IgF-BP3/IgF-1; Month 3, individual subjects): 8.6 and 8.3 and 8.9 and 8.8 and 8.1
- Ratio IgF-BP3/IgF-1, average (IgF-BP3/IgF-1; Month 4, average of 5 subjects): 7.9
- Ratio IgF-BP3/IgF-1 (IgF-BP3/IgF-1; Month 4, individual subjects): 8.0 and 7.6 (2×) and 8.3 and 7.8
- Ratio IgF-BP3/IgF-1, average (IgF-BP3/IgF-1; Month 5, average of 5 subjects): 7.2
- Ratio IgF-BP3/IgF-1 (IgF-BP3/IgF-1; Month 5, individual subjects): 7.2 (2×) and 6.8 and 7.6 and 7.3
- Ratio IgF-BP3/IgF-1, average (IgF-BP3/IgF-1; Month 6, average of 5 subjects): 6.8
- Ratio IgF-BP3/IgF-1 (IgF-BP3/IgF-1; Month 6, individual subjects): 6.6 and 6.3 and 7.2 and 6.9 (2×)
